Where two headings read alike, the source gives them in different places.
Tested on: Ctenocephalides felis (cat flea)
Experiment: Contact activity against the adult cat flea (Table I)
Assay type: in vivo
Settings: topical
Method: This test is designed to evaluate the contact activity of test compounds against the adult cat flea. Test compounds are dissolved in 100% acetone to 300, 100, 10 and 1 ppm. 100 μL of each of these dilutions is added to the bottom of a 20 mL glass scintillation vial with a pipettor. The vial is allowed to dry under a fume hood for 15 minutes. The bottom of the vial measures 4.909 cm^2. The amount of test compound applied by each dilution equals 6.2, 2.0, 0.2 and 0.02 μg/cm^2, respectively. Newly emerged adult cat fleas are anesthetized with CO2 to immobilize, and are counted into the scintillation vials with forceps. Five fleas are placed in each vial. These tests are done in replicates of two or three so that there are 10 to 15 fleas per rate/compound. Mortality readings are taken 4 and 24 hours after placing the fleas in the vials. […] Percent mortality is then calculated for each treatment.

[1] = 4 h, read-out: 4 Hour % Mortality
[2] = 24 h, read-out: 24 Hour % Mortality

Compound | mortality at 0.02 µg/cm2 [1] [%] | mortality at 0.2 µg/cm2 [1] [%] | mortality at 2 µg/cm2 [1] [%] | mortality at 6.2 µg/cm2 [1] [%] | mortality at 0.02 µg/cm2 [2] [%] | mortality at 0.2 µg/cm2 [2] [%] | mortality at 2 µg/cm2 [2] [%] | mortality at 6.2 µg/cm2 [2] [%]
F/C(=C\Cc1cccc(Oc2ccccc2)c1)C1(c2ccc(Cl)cc2)CC1 [Compound 3, 1-(p-Chlorophenyl)-1-[1-fluoro-3-(m-phenoxyphenyl)propenyl]cyclopropane, (Z)-] | 5 | 0 | 7 | 0 | 5 | 7 | 17 | 13
CCOc1ccc(C(/C(F)=C/Cc2cccc(Oc3ccccc3)c2)C(C)C)cc1 (stereo not shown) [Compound 11, 4-(p-Ethoxyphenyl)-3-fluoro-5-methyl-1-(m-phenoxyphenyl)-2-hexene, (Z)-] | 0 | 10 | 30 | 60 | 10 | 40 | 90 | 90
CC(C)C(/C(F)=C/Cc1cccc(Oc2ccccc2)c1)c1ccc(Cl)cc1 (stereo not shown) [Compound 8, 4-(p-Chlorophenyl)-3-fluoro-5-methyl-1-(m-phenoxyphenyl)-2-hexene, (Z)-] | 0 | 0 | 0 | 0 | 10 | 0 | 0 | 20
F/C(=C\Cc1cccc(Oc2ccccc2)c1)C(c1ccc(F)cc1)C1CC1 (racemic) [Compound 15, 1-[2-Fluoro-1-(p-fluorophenyl)-4-(m-phenoxyphenyl)-2-butenyl]cyclopropane, (R,S)-(Z)-] |  | 44 | 80 | 100 |  | 78 | 100 | 100
CCOc1ccc(C(/C(F)=C/Cc2ccc(F)c(Oc3ccc(F)cc3)c2)C2CC2)cc1 (racemic) [Compound 16, 1-{1-(p-Ethoxyphenyl)-2-fluoro-4-[4-fluoro-3-(p-fluorophenoxy)phenyl]-2-butenyl}cyclopropane, (R,S)-(Z)-] | 0 | 20 | 71 | 100 | 60 | 50 | 100 | 100
F/C(=C\Cc1ccc(F)c(Oc2ccccc2)c1)C1(c2ccc(Cl)cc2)CC1 [Compound 4, 1-(p-Chlorophenyl)-1-[1-fluoro-3-(4-fluoro-3-phenoxyphenyl)propenyl]cyclopropane, (Z)-] | 5 | 7 | 0 | 3 | 16 | 14 | 21 | 28
CCOc1ccc(C(/C(F)=C/Cc2cccc(Oc3ccc(F)cc3)c2)C(C)C)cc1 (stereo not shown) [Compound 12, 4-(p-Ethoxyphenyl)-3-fluoro-1-[m-(p-fluorophenoxy)phenyl]-5-methyl-2-hexene, (Z)-] | 0 | 0 | 10 | 33 | 0 | 10 | 30 | 78
F/C(=C\Cc1cccc(Oc2ccccc2)c1)C(c1ccc(Cl)cc1)C1CC1 (stereo not shown) [Compound 6, 1-[1-(p-Chlorophenyl)-2-fluoro-4-(m-phenoxyphenyl)-2-butenyl]cyclopropane, (Z)-] | 0 | 0 | 56 | 80 | 8 | 28 | 88 | 100
CC(C)(C(F)=CCc1cccc(Oc2ccccc2)c1)c1ccc(Cl)cc1 [Compound 1, 4-(p-Chlorophenyl)-3-fluoro-4-methyl-1-(m-phenoxyphenyl)-2-pentene, (Z)- and (E)-(95:5)] | 5 | 5 | 10 | 0 | 10 | 20 | 35 | 53
CC(C)(/C(F)=C/Cc1ccc(F)c(Oc2ccccc2)c1)c1ccc(Cl)cc1 [Compound 2, 4-(p-Chlorophenyl)-3-fluoro-1-(4-fluoro-3-phenoxyphenyl)-4-methyl-2-pentene, (Z)-] | 5 | 0 | 0 | 22 | 10 | 32 | 58 | 100
F/C(=C\Cc1cccc(Oc2ccc(F)cc2)c1)C(c1ccc(Cl)cc1)C1CC1 (stereo not shown) [Compound 13, 1-{1-(p-Chlorophenyl)-2-fluoro-4-[m-(p-fluorophenoxy)phenyl]-2-butenyl}cyclopropane, (Z)-] | 0 | 0 | 5 | 10 | 5 | 33 | 67 | 95
CC(C)C(/C(F)=C(\F)Cc1ccc(F)c(Oc2ccccc2)c1)c1ccc(OC(F)(F)F)cc1 (stereo not shown) [Compound 17, 2,3-Difluoro-1-(4-fluoro-3-phenoxyphenyl)-5-methyl-4-[p-(trifluoromethoxy)phenyl]-2-hexene, (E)-] | 0 | 10 | 10 | 10 | 20 | 40 | 50 | 90
CC(C)C(/C(F)=C/Cc1ccc(F)c(Oc2ccccc2)c1)c1ccc(Cl)cc1 (stereo not shown) [Compound 7, 4-(p-Chlorophenyl)-3-fluoro-1-(4-fluoro-3-phenoxyphenyl)-5-methyl-2-hexene, (Z)-] | 0 | 0 | 0 | 0 | 10 | 0 | 0 | 100
CC(C)(C)C(/C(F)=C/Cc1cccc(Oc2ccccc2)c1)c1ccc(Cl)cc1 (stereo not shown) [Compound 9, 4-(p-Chlorophenyl)-3-fluoro-5-methyl-1-(m-phenoxyphenyl)-5-methyl-2-hexene, (Z)-] | 0 | 0 | 30 | 20 | 40 | 70 | 70 | 80
CCOc1ccc(C(/C(F)=C/Cc2cccc(Oc3ccccc3)c2)C2CC2)cc1 (racemic) [Compound 14, 1-[1-(p-Ethoxyphenyl)-2-fluoro-4-(m-phenoxyphenyl)-2-butenyl]cyclopropane, (R,S)-(Z)-] | 10 | 20 | 20 | 50 | 30 | 60 | 100 | 100

From patent US6235754A, “Methods and compositions for protecting animals and humans against attack and infestation by arthropod and helminth parasites” (American Cyanamid Company, priority 1999, dated 2001)
